Measurements published in patent US20200390899A1, “AMINOBENZAZEPINE COMPOUNDS, IMMUNOCONJUGATES, AND USES THEREOF” (BOLT BIOTHERAPEUTICS, INC., priority 2019, published 2020).
pEC50: −log10 of the molar value. Like-named read-outs stand apart in the source and are kept apart here.

Columns and labels:
human TLR7 = molecular target: T1, human TLR7 (Homo sapiens, UniProt Q9NYK1); assay: HEK293 NFKB reporter assay, human TLR7; type: cell-based; conditions: HEK293 reporter cells expressing human TLR7, read-out: HEK293 hTLR7 EC50
T1 construct: host or cells: HEK293 reporter cells
T1 sequence (Q9NYK1 27-1049): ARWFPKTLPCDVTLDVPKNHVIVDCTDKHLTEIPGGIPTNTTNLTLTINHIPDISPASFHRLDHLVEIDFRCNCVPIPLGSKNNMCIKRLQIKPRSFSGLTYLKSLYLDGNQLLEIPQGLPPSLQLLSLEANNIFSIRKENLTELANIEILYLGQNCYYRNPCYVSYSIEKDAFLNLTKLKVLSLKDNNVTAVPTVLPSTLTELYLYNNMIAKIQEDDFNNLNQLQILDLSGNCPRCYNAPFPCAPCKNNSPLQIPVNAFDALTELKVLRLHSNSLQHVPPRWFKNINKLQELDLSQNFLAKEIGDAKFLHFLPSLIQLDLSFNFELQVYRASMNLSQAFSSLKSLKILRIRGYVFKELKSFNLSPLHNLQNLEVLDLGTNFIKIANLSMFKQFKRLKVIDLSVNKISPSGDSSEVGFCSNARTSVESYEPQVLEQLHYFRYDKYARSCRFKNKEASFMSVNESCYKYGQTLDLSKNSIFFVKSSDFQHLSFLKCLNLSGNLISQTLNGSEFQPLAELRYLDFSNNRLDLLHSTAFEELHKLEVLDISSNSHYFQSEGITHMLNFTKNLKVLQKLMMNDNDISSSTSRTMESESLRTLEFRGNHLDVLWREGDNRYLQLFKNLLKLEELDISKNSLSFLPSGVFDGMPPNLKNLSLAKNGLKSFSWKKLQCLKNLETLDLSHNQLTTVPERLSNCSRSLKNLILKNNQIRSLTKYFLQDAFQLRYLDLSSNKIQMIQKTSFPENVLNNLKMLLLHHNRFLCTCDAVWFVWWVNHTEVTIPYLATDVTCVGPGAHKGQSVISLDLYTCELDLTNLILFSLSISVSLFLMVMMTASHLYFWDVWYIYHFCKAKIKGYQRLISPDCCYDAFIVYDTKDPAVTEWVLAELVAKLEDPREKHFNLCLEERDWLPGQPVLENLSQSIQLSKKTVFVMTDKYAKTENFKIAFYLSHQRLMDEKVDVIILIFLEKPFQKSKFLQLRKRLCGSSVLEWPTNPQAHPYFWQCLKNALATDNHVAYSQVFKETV
Experimental: (§1) Each compound was synthesized and purified by the methods in the Examples provided herein, characterized by mass spectrometry, and shown to have the mass indicated. Activity against HEK293 NFKB reporter cells expressing human TLR7 or human TLR8 was measured according to Example 68.
(§2) HEK293 reporter cells expressing human TLR7 or human TLR8 were purchased from Invivogen and vendor protocols were followed for cellular propagation and experimentation. Briefly, cells were grown to 80-85% confluence at 5% CO2 in DMEM supplemented with 10% FBS, Zeocin, and Blasticidin. Cells were then seeded in 96-well flat plates at 4×10^4cells/well with substrate containing HEK detection medium and immunostimulatory molecules. Activity was measured using a plate reader at 620-655 nm wavelength.

human TLR8 = molecular target: T2, human TLR8 (Homo sapiens, UniProt Q9NR97); assay: HEK293 NFKB reporter assay, human TLR8; type: cell-based; conditions: HEK293 reporter cells expressing human TLR8, read-out: HEK293 hTLR8 EC50
T2 construct: host or cells: HEK293 reporter cells
T2 sequence (Q9NR97 27-1041): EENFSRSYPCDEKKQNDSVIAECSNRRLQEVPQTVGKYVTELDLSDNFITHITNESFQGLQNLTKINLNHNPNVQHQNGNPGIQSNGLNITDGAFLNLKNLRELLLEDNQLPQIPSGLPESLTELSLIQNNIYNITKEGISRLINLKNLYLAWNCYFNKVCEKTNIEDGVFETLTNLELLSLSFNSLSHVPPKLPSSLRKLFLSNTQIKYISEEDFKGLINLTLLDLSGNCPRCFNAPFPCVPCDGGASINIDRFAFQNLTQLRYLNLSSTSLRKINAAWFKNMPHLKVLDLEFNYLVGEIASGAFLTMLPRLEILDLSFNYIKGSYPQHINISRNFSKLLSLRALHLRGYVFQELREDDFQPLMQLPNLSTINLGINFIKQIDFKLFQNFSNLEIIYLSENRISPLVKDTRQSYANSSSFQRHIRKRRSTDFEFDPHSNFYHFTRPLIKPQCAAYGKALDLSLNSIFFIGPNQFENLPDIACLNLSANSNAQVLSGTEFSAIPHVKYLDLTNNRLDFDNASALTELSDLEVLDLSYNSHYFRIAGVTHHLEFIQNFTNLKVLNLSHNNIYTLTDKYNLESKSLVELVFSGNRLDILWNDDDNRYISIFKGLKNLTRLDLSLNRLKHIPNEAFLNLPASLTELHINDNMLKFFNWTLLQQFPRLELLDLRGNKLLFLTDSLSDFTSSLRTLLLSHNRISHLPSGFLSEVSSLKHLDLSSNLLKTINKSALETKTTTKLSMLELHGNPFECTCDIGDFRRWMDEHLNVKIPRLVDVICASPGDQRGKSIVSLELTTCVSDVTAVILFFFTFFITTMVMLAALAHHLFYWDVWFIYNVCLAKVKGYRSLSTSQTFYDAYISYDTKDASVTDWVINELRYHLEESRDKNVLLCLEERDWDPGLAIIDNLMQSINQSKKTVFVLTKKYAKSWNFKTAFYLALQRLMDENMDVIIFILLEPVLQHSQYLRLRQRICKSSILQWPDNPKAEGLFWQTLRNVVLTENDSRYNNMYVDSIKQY
Experimental: as §1, §2

| SMILES | pEC50 (human TLR7; Table 1b) | pEC50 (human TLR8; Table 1b) | pEC50 (human TLR7; Table 1c) | pEC50 (human TLR8; Table 1c) |
| --- | --- | --- | --- | --- |
| CCCN(CCC(F)(F)F)C(=O)C1=Cc2ccc(-c3cccc(S(=O)(=O)N4CC(CO)C4)c3)cc2N=C(N)C1 [Bz-31, 2-amino-8-[3-[3-(hydroxymethyl)azetidin-1-yl]sulfonylphenyl]-N-propyl-N-(3,3,3-trifluoropropyl)-3H-1-benzazepine-4-carboxamide] | < 5.05 | 6.47 |  |  |
| CCCN(Cc1ccc(CN2CCNCC2)cc1)C(=O)C1=Cc2ccc(-c3cccc(S(=O)(=O)N4CC(CO)C4)c3)cc2N=C(N)C1 [Bz-32, 2-amino-8-[3-[3-(hydroxymethyl)azetidin-1-yl]sulfonylphenyl]-N-[[4-(piperazin-1-ylmethyl)phenyl]methyl]-N-propyl-3H-1-benzazepine-4-carboxamide] | < 5.05 | < 5.05 |  |  |
| CCCN(CCCNC(=O)c1ccc(OCC)cc1)C(=O)C1=Cc2ccc(-c3cccc(S(=O)(=O)N4CC(CO)C4)c3)cc2N=C(N)C1 [Bz-33, 2-amino-N-(3-(4-ethoxybenzamido)propyl)-8-(3-((3-(hydroxymethyl)azetidin-1-yl)sulfonyl)phenyl)-N-propyl-3H-benzo[b]azepine-4-carboxamide] | 5.85 | 5.72 |  |  |
| CCCN(CCCNC(=O)c1ccc(OCC)cc1)C(=O)C1=Cc2ccc(C(=O)Nc3ccccc3)cc2N=C(N)C1 [Bz-34, 2-amino-N^4-(3-(4-ethoxybenzamido)propyl)-N^8-phenyl-N^4-propyl-3H-benzo[b]azepine-4,8-dicarboxamide] | < 5.05 | 5.98 |  |  |
| CCCN(CCC)C(=O)C1=Cc2ccc(-c3cc(C(F)(F)F)cc(S(=O)(=O)N4CC(CN(C)C)C4)c3)cc2N=C(N)C1 [Bz-39] |  |  | 7.38 | 6.14 |
| CCCN(OCC)C(=O)C1=Cc2ccc(-c3cccc(S(=O)(=O)N4CC(CO)C4)c3)cc2N=C(N)C1 [Bz-42] |  |  | ≤ 5.05 | 7.31 |
| CCCN(CCC(F)(F)F)C(=O)C1=Cc2ccc(-c3cccc(S(=O)(=O)N4CC(CO)C4)c3)cc2N=C(N)C1 [Bz-47] |  |  | ≤ 5.05 | 6.47 |
| CCCN(Cc1ccc(CN2CCNCC2)cc1)C(=O)C1=Cc2ccc(-c3cccc(S(=O)(=O)N4CC(CO)C4)c3)cc2N=C(N)C1 [Bz-49] |  |  | ≤ 5.05 | ≤ 5.05 |
| CCCN(CCCNC(=O)c1ccc(OCC)cc1)C(=O)C1=Cc2ccc(-c3cccc(S(=O)(=O)N4CC(CO)C4)c3)cc2N=C(N)C1 [Bz-51] |  |  | 5.85 | 5.72 |
| CCCN(CCCNC(=O)c1ccc(OCC)cc1)C(=O)C1=Cc2ccc(C(=O)Nc3ccccc3)cc2N=C(N)C1 [Bz-55] |  |  | ≤ 5.05 | 5.98 |
| CCCN(OCC)C(=O)C1=Cc2ccc(-c3cccc(S(=O)(=O)N4CC(CN(C)C)C4)c3)cc2N=C(N)C1 [Bz-63] |  |  | 5.90 | 8.10 |
| CCON(CCC(F)(F)F)C(=O)C1=Cc2ccc(-c3cccc(S(=O)(=O)N4CC(CO)C4)c3)cc2N=C(N)C1 [Bz-66] |  |  | 5.34 | 7.59 |
| CCCN(CCC)C(=O)C1=Cc2ccc(C#CCCCNC(=O)OC(C)(C)C)cc2N=C(N)C1 [Bz-67] |  |  | 5.41 | 5.69 |
| CCCN(CCC)C(=O)C1=Cc2ccc(C#CCCCN)cc2N=C(N)C1 [Bz-68] |  |  | 5.34 | 5.51 |
| CCCN(CCC)C(=O)C1=Cc2ccc(CCCCCNC(=O)OC(C)(C)C)cc2N=C(N)C1 [Bz-69] |  |  | 5.49 | 5.18 |
| CCCN(OCC(F)(F)F)C(=O)C1=Cc2ccc(-c3cccc(S(=O)(=O)N4CC(CO)C4)c3)cc2N=C(N)C1 [Bz-73] |  |  | 5.35 | 6.92 |
| CCCN(CCc1ccc(OC)cc1)C(=O)C1=Cc2ccc(-c3cccc(S(=O)(=O)N4CC(CN(C)C)C4)c3)cc2N=C(N)C1 [Bz-76] |  |  | 6.01 | 6.10 |
